Patent US20230127326A1, “C3-SUBSTITUTED 1H-PYRAZOLO[4,3-d]PYRIMIDINE COMPOUNDS AS TOLL-LIKE RECEPTOR 7 (TLR7) AGONISTS” (BRISTOL-MYERS SQUIBB COMPANY, priority 2020, published 2023)

Key:
CD69 = experiment: Induction of CD69 in human whole blood; format: cell-based; conditions: 17 hrs at 37° C., y-axis 100% set to 1 uM of resiquimod, average where assay was performed multiple times, read-out: hWB CD69 EC50
Experimental: The induction of Type I interferon (IFN) MX-1 genes and the B-cell activation marker CD69 are downstream events that occur upon activation of the TLR7 pathway. The following is a human whole blood assay that measures their induction in response to a TLR7 agonist.
Heparinized human whole blood was harvested from human subjects and treated with test TLR7 agonist compounds at 1 mM. The blood was diluted with RPMI 1640 media and Echo was used to predot 10 nL per well giving a final concentration of 1 uM (10 nL in 10 uL of blood). After mixing on a shaker for 30 sec, the plates were covered and placed in a 37° C. chamber for o/n=17 hrs. Fixing/lysis buffer was prepared (5×->1× in H2O, warm at 37° C.; Cat #BD 558049) and kept the perm buffer (on ice) for later use.
For surface markers staining (CD69): prepared surface Abs: 0.045 ul hCD14-FITC (ThermoFisher Cat #MHCD1401)+0.6 ul hCD19-ef450 (ThermoFisher Cat #48-0198-42)+1.5 ul hCD69-PE (cat #BD555531)+0.855 ul FACS buffer. Added 3 ul/well, spin 1000 rpm for 1 min and mixed on shaker for 30 sec, put on ice for 30 mins. Stop stimulation after 30 minutes with 70 uL of prewarmed 1× fix/lysis buffer and use Feliex mate to resuspend (15 times, change tips for each plate) and incubate at 37 C for 10 minutes.
Centrifuge at 2000 rpm for 5 minutes aspirate with HCS plate washer, mix on shaker for 30 sec and then wash with 70 uL in dPBS and pelleted 2×s (2000 rpm for 5 min) and 50 ul wash in FACS buffer pelleted 1×s (2000 rpm for 5 min). Mix on shaker for 30 sec. For Intracellular markers staining (MX-1): Add 50 ul of BD Perm buffer III and mix on shaker for 30 sec. Incubate on ice for 30 minutes (in the dark). Wash with 50 uL of FACS buffer 2× (spin @2300 rpm×5 min after perm) followed by mixing on shaker for 30 sec. Resuspended in 20 ul of FACS buffer containing MX1 antibody ( )(4812)-Alexa 647: Novus Biologicals #NBP2-43704AF647) 20 ul FACS bf+0.8 ul hIgG+0.04 ul MX-1. Spin 1000 rpm for 1 min, mix on shaker for 30 se and the samples were incubated at RT in the dark for 45 minutes followed by washing 2×FACS buffer (spin @2300 rpm×5 min after perm). Resuspend 20 ul (35 uL total per well) of FACS buffer and cover with foil and place in 4° C. to read the following day. Plates were read on iQuePlus. The results were loaded into toolset and […] curves are generated in curve master. The y-axis 100% is set to 1 uM of resiquimod.

human TLR7 = biological target: T1, human TLR7 (Homo sapiens, UniProt Q9NYK1); experiment: Human TLR7 agonist activity reporter assay (HEK-Blue TLR7 cells, SEAP reporter); format: cell-based; conditions: 18 h treatment, average where assay was performed multiple times, read-out: hTLR7 Agonism EC50
T1 construct: host or cells: HEK-Blue TLR7 cells (engineered human embryonic kidney cells)
T1 sequence (Q9NYK1 27-1049): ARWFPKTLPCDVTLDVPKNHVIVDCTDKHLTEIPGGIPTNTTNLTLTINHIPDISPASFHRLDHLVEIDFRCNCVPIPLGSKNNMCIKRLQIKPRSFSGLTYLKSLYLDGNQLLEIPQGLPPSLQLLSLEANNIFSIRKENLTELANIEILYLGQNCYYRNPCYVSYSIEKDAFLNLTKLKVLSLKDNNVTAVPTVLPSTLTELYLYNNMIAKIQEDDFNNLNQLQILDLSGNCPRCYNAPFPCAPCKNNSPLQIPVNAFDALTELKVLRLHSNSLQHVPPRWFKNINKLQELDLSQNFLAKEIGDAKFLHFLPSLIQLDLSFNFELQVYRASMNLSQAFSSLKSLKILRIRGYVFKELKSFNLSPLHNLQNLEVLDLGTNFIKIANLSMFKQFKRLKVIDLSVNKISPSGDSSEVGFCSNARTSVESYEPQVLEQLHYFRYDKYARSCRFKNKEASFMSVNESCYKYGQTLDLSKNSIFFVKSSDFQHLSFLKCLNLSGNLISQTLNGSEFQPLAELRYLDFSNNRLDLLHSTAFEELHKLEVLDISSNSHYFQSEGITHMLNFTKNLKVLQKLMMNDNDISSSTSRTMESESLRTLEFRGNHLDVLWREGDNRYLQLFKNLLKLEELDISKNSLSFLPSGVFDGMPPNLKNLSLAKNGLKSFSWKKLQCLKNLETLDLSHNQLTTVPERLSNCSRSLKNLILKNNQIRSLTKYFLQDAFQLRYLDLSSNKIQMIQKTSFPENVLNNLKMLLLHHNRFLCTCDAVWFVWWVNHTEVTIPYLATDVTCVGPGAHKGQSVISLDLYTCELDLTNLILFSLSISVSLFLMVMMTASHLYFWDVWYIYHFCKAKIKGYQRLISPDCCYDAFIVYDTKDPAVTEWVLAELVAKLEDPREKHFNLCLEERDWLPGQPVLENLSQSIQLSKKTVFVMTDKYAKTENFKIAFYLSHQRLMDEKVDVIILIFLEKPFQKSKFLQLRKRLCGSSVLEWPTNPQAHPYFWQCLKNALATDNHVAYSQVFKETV
Experimental: This procedure describes a method for assaying human TLR7 (hTLR7) agonist activity of the compounds disclosed in this specification.
HEK-Blue™ TLR7 cells were added to each well of a 384-well tissue-culture plate (15,000 cells per well) and incubated 16-18 h at 37° C., 5% CO2. Compounds (100 nl) were dispensed into wells containing the HEK-Blue™ TLR cells and the treated cells were incubated at 37° C., 5% CO2. After 18 h treatment ten microliters of freshly-prepared Quanti-Blue™ reagent (Invivogen) was added to each well, incubated for 30 min (37° C., 5% CO2) and SEAP levels measured using an Envision plate reader (OD=620 nm). The half maximal effective concentration values (EC50; compound concentration which induced a response halfway between the assay baseline and maximum) were calculated.

SMILES | EC50 (CD69) [nM] | EC50 (human TLR7) [nM]
CCCCNc1nc(N)nc2c(-c3ccncc3)nn(Cc3ccc(CNC4CCOCC4)cc3OC)c12 [Compound 112, N7-butyl-1-[(2-methoxy-4-{[(oxan-4-yl)amino]-methyl}phenyl)methyl]-3-(pyridin-4-yl)-1H-pyrazolo[4,3-d]pyrimidine-5,7-diamine] | 1000 | 2430
CCCCNc1nc(N)nc2c(OC)nn(Cc3ccc(CNC4CCOCC4)cc3OC)c12 [Compound 115, N7-butyl-3-methoxy-1-[(2-methoxy-4-{[(oxan-4-yl)amino]methyl}phenyl)-methyl]-1H-pyrazolo[4,3-d]pyrimidine-5,7-diamine] | 8.1 | 40.1
CCCCNc1nc(N)nc2c(F)nn(Cc3ccc(CN4CCN(C)CC4)cc3OC)c12 [Compound 109, N7-butyl-3-fluoro-1-({2-methoxy-4-[(4-methyl-piperazin-1-yl)methyl]-phenyl}methyl)-1H-pyrazolo[4,3-d]pyrimidine-5,7-diamine] | 8.4 | 12.1
CCC[C@@H](CCO)Nc1nc(N)nc2c(C)nn(Cc3ccc(CNC4CCOCC4)cc3OC)c12 [Compound 127, (3S)-3-({5-amino-1-[(2-methoxy-4-{[(oxan-4-yl)amino]methyl}phenyl)-methyl]-3-methyl-1H-pyrazolo[4,3-d]pyrimidin-7-yl}amino)hexan-1-ol] | 2.7 | 21.8
CCCCNc1nc(N)nc2c(C)nn(Cc3ccc(CNC4CCC4)cc3OC)c12 [Compound 103, N7-butyl-1-({4-[(cyclobutylamino)methyl]-2-methoxyphenyl}methyl)-3-methyl-1H-pyrazolo[4,3-d]pyrimidine-5,7-diamine] | 15.4 | 101
CCC[C@@H](CCO)Nc1nc(N)nc2c(C)nn(Cc3ccc(CN4CCN(C)CC4)cc3OC)c12 [Compound 129, (3S)-3-{[5-amino-1-({2-methoxy-4-[(4-methyl-piperazin-1-yl)methyl]-phenyl}methyl)-3-methyl-1H-pyrazolo[4,3-d]pyrimidin-7-yl]amino}hexan-1-ol] | 3.5 | 5.93
CCCCNc1nc(N)nc2c(C)nn(Cc3ccc(CN4CCN(C)CC4)cc3OC)c12 [Compound 105, N7-butyl-1-({2-methoxy-4-[(4-methylpiperazin-1-yl)methyl]phenyl}methyl)-3-methyl-1H-pyrazolo[4,3-d]pyrimidine-5,7-diamine] | 9.4 | 62.3
CCCCNc1nc(N)nc2c(-c3cccnc3)nn(Cc3ccc(CNC4CCOCC4)cc3OC)c12 [Compound 114, N7-butyl-1-[(2-methoxy-4-{[(oxan-4-yl)amino]methyl}-phenyl)methyl]-3-(pyridin-3-yl)-1H-pyrazolo[4,3-d]pyrimidine-5,7-diamine] | 42.7 | 291
CCC[C@@H](CCO)Nc1nc(N)nc2c(F)nn(Cc3ccc(CN[C@H]4COC[C@@H]4O)cc3OC)c12 [Compound 133, (3R,4S)-4-[({4-[(5-amino-3-fluoro-7-{[(3S)-1-hydroxy-hexan-3-yl]amino}-1H-pyrazolo[4,3-d]pyrimidin-1-yl)-methyl]-3-methoxyphenyl}-methyl)amino]oxolan-3-ol] | 12.6 | 47.9
CCCCNc1nc(N)nc2c(C)nn(Cc3ncc(CN4CCN(CCO)CC4)cc3OC)c12 [Compound 131, 2-{4-[(6-{[5-amino-7-(butyl-amino)-3-methyl-1H-pyrazolo[4,3-d]pyrimidin-1-yl]methyl}-5-methoxy-pyridin-3-yl)methyl]piperazin-1-yl}ethan-1-ol] | 41.4 | 224
CCCCNc1nc(N)nc2c(CO)nn(Cc3ccc(CN4CCN(CCO)CC4)cc3OC)c12 [Compound 119, 2-{4-[(4-{[5-amino-7-(butyl-amino)-3-(hydroxymethyl)-1H-pyrazolo[4,3-d]pyrimidin-l-yl]methyl}-3-methoxy-phenyl)methyl]piperazin-1-yl}ethan-1-ol] | 177 | 433

Next, values leading:

EC50 (CD69) [nM] | EC50 (human TLR7) [nM] | SMILES
28.4 | 46.5 | CCCCNc1nc(N)nc2c(F)nn(Cc3ccc(CNC4CCC4)cc3OC)c12 [Compound 107, N7-butyl-1-({4-[(cyclobutylamino)methyl]-2-methoxyphenyl}methyl)-3-fluoro-1H-pyrazolo[4,3-d]pyrimidine-5,7-diamine]
41.8 | 91.3 | CCCCNc1nc(N)nc2c(C)nn(Cc3ccc(CNC4CCOCC4)cc3OC)c12 [Compound 104, N7-butyl-1-[(2-methoxy-4-{[(oxan-4-yl)amino]methyl}-phenyl)methyl]-3-methyl-1H-pyrazolo[4,3-d]pyrimidine-5,7-diamine]
97 | 1410 | CCCCNc1nc(N)nc2c(Cl)nn(Cc3ccc(CNC4CCOCC4)cc3OC)c12 [Compound 111, N7-butyl-3-chloro-1-[(2-methoxy-4-{[(oxan-4-yl)amino]methyl}phenyl)-methyl]-1H-pyrazolo[4,3-d]pyrimidine-5,7-diamine]
88.7 | 203 | CCCCNc1nc(N)nc2c(CC)nn(Cc3ccc(CNC4CCOCC4)cc3OC)c12 [Compound 122, N7-butyl-3-ethyl-1-[(2-methoxy-4-{[(oxan-4-yl)amino]methyl}phenyl)-methyl]-1H-pyrazolo[4,3-d]pyrimidine-5,7-diamine]
365 | 2000 | CCCCNc1nc(N)nc2c(Br)nn(Cc3ccc(CNC4CCOCC4)cc3OC)c12 [Compound 101, 3-bromo-N7-butyl-1-[(2-methoxy-4-{[(oxan-4-yl)amino]methyl}phenyl)-methyl]-1H-pyrazolo[4,3-d]pyrimidine-5,7-diamine]
87.2 | 72 | CCCCNc1nc(N)nc2c(F)nn(Cc3ccc(CNC4CCOCC4)cc3OC)c12 [Compound 108, N7-butyl-3-fluoro-1-[(2-methoxy-4-{[(oxan-4-yl)amino]methyl}phenyl)-methyl]-1H-pyrazolo[4,3-d]pyrimidine-5,7-diamine]
